Literature values in patent US7098239B2, “Dipeptidyl peptidase inhibitors for the treatment of diabetes” (Merck & Co., Inc, priority 2001, dated 2006).

Legend:
cardiac allograft = conditions: rats; survival doubled from day 7 to day 14
hematopoiesis = conditions: mouse model of cyclophosphamide-induced neutropenia
DP-IV = target: T1, DP-IV (Homo sapiens, UniProt P27487)
T1 construct: GRF is rapidly degraded in plasma to GRF[3–44]
T1 sequence (P27487 39-766 limits assumed): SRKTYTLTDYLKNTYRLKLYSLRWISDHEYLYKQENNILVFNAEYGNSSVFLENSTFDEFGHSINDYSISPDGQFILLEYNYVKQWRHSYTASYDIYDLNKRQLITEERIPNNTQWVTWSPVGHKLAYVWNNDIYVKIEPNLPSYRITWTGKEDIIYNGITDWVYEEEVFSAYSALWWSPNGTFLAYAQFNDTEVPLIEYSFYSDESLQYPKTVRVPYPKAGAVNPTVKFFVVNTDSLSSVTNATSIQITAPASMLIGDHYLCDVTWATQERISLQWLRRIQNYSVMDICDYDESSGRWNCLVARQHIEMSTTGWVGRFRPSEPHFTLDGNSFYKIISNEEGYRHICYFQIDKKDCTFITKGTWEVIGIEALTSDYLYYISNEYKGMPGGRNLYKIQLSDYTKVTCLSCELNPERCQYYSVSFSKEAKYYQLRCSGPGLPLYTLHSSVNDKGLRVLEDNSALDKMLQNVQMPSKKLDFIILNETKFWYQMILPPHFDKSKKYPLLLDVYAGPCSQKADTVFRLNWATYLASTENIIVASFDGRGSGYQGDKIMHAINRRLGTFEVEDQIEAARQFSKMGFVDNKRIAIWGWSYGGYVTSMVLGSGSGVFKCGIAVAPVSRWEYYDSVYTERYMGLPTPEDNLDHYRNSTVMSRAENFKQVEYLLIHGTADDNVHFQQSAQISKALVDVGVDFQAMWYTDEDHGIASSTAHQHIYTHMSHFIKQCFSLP

CC(C)N1CCC(c2ccccc2)(c2ccccc2)CC1 [Prodipine, Pro-Pro-diphenyl-phosphonate]
cardiac allograft survival (cardiac allograft): 14 day

CC(C)[C@H](N)C(=O)N1CCC[C@H]1B(O)O [Val-Boro-Pro]
hematopoiesis (hematopoiesis): stimulates hematopoiesis

diprotin A
degradation of GRF in plasma to GRF[3-44] (DP-IV): prevented
